PMC5196434, “Proximity does not contribute to activity enhancement in the glucose oxidase–horseradish peroxidase cascade” (Nature Communications, 2016)

Target: T1, glucose oxidase (GOx) (Aspergillus niger, UniProt P13006)
T1 construct: commercial type VII preparation (Sigma Aldrich), free enzyme
Assay: HRP-coupled ABTS colorimetric assay, absorbance at […] nm
Type: biochemical
Details: co-substrate oxygen; 20 nM HRP, 2 mM ABTS; PBS pH 7.4; 23 °C; read-out: Michaelis-Menten kinetics (Km)

T1 sequence (P13006 23-605): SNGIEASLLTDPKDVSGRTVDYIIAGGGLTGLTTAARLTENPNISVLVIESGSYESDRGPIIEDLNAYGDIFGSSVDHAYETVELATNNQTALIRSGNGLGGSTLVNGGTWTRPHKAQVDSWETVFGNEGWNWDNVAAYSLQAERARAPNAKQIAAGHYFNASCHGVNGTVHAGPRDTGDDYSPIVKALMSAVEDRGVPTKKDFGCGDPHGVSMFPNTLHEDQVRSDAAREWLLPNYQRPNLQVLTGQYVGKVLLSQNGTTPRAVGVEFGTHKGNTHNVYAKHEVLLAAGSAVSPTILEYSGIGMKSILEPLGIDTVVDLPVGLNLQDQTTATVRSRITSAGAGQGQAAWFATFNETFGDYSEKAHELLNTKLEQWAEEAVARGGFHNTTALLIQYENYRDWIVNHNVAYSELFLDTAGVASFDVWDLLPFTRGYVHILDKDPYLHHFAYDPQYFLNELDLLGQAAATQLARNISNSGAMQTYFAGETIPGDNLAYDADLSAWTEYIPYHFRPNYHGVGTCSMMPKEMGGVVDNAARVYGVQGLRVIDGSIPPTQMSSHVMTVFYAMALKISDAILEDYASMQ

**Q.** D-glucose was tested. Which Km did it give?
**A.** Its Km is 15 mM.
